Reference: PubChem BioAssay (NCI)
“And” between values parts separate entries of the source, which are not always exact repeats. Equal values may be shown once.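 Interpolation was linear, between the two tested concentrations surrounding the appropriate level; five concentrations were tested over 48 hours in 96-well plates. GI50 marks 50% less growth. Definition used: TGI = concentration required for complete inhibition of growth.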

What was measured:
Test in all cases: NCI-60 cell line screen, 48 h
[1] = test system: RXF 393 renal
[2] = test system: NCI-H460 lung
[3] = test system: PC-3 prostate
[4] = test system: UACC-62 melanoma
[5] = test system: CCRF-CEM leukemia
[6] = test system: SR leukemia
[7] = test system: SNB-19 CNS
[8] = test system: NCI-H522 lung
[9] = test system: IGROV1 ovarian
[10] = test system: HOP-62 NSCLC

Compound: Nc1nc(/C=C\c2ccccc2)nc(N2CCN(c3ccccc3)CC2)n1
- GI50 [1]: 21600 nM
- TGI [1]: 49.2 µM
- GI50 [2]: 24.5 µM
- TGI [2]: > 100 µM
- GI50 [3]: 27900 nM
- TGI [3]: > 100 µM
- GI50 [4]: 26000 nM
- TGI [4]: 91.6 µM
- GI50 [5]: 37.3 µM
- TGI [5]: > 100 µM
- GI50 [6]: 35800 nM
- TGI [6]: > 100 µM
- GI50 [7]: 20.4 µM
- TGI [7]: 60 µM
- GI50 [8]: 28.2 µM
- TGI [8]: 84.9 µM
- GI50 [9]: 22.9 µM
- TGI [9]: 69.8 µM
- GI50 [10]: 23900 nM
- TGI [10]: 86.3 µM

Compound: CCCCCCCCCCCCOC1C(CNC(=O)C2OC3OC(C)(C)OC3C2NC(=O)CN2CCN(c3ccc(OC)cc3)CC2)OC2OC(C)(C)OC21 (stereo not drawn)
- GI50 [1]: 2100 nM
- TGI [1]: 4.44 µM
- GI50 [3]: 2820 nM
- TGI [3]: 9.79 µM
- GI50 [4]: 5440 nM
- TGI [4]: 18.3 µM
- GI50 [5]: 4.1 µM
- TGI [5]: 16.9 µM
- GI50 [6]: 2860 nM
- TGI [6]: 6.07 µM
- GI50 [7]: 5.3 µM
- TGI [7]: 17 µM
- GI50 [8]: 4.92 µM
- TGI [8]: 17.4 µM
- GI50 [9]: 4.24 µM
- TGI [9]: 16.4 µM
- GI50 [10]: 5070 nM
- TGI [10]: 20.5 µM

Compound: O=C(c1ccc(Cl)cc1)C(O)c1ccc(Cl)cc1 (stereo not drawn)
- TGI [1]: > 100 µM
- TGI [2]: > 100 µM
- TGI [3]: > 100 µM
- TGI [4]: > 100 µM
- TGI [5]: > 100 µM
- TGI [6]: > 100 µM
- TGI [7]: > 100 µM
- TGI [8]: > 100 µM
- TGI [9]: > 100 µM
- TGI [10]: > 100 µM

Compound: CC(=O)NNc1nc(C)c(C(/C=C/c2ccccc2O)=N/N=C(N)N)s1
- TGI [1]: > 100 µM
- TGI [2]: > 100 µM
- TGI [3]: > 100 µM
- TGI [4]: > 100 µM
- TGI [5]: > 100 µM
- TGI [6]: > 100 µM
- TGI [7]: > 100 µM
- TGI [8]: > 100 µM
- TGI [9]: > 100 µM
- TGI [10]: > 100 µM

Compound: Cc1cc(-c2cc(O)ccc2Cl)cc2nnc(Nc3ccc(OCCN4CCCC4)cc3)nc12
- GI50 [1]: 1200 nM
- TGI [1]: 2.61 µM
- GI50 [2]: 0.579 µM
- TGI [2]: 1.12 µM
- GI50 [3]: 424 nM
- TGI [3]: 1.54 µM
- GI50 [4]: 1700 nM
- TGI [4]: 3.33 µM
- GI50 [5]: 0.242 µM
- TGI [5]: 0.634 µM
- GI50 [6]: 239 nM
- TGI [6]: 0.595 µM
- GI50 [7]: 0.659 µM
- TGI [7]: 1.23 µM
- GI50 [8]: 0.71 µM
- TGI [8]: 2.58 µM
- GI50 [9]: 1.63 µM
- TGI [9]: 3.57 µM
- GI50 [10]: 1880 nM
- TGI [10]: 3.79 µM

Compound: C#CCN(c1ccc(C(=O)N[C@@H](CCC(=O)N[C@H](CCC(=O)O)C(=O)O)C(=O)O)cc1)C1CCc2cc3nc(CO)[nH]c(=O)c3cc21 (stereo partly drawn)
- GI50 [1]: 63800 nM
- TGI [1]: > 100 µM
- GI50 [2]: 5.11 µM
- TGI [2]: > 100 µM
- GI50 [3]: > 100000 nM
- TGI [3]: > 100 µM
- GI50 [4]: 7330 nM
- TGI [4]: > 64.1 µM
- GI50 [5]: > 36.3 µM
- TGI [5]: > 100 µM
- GI50 [6]: 7050 nM
- TGI [6]: > 100 µM
- GI50 [7]: > 73.5 µM
- TGI [7]: > 100 µM
- GI50 [8]: > 100 µM
- TGI [8]: > 100 µM
- GI50 [9]: > 100 µM
- TGI [9]: > 100 µM
- GI50 [10]: > 31800 nM
- TGI [10]: > 100 µM

Compound: CC[C@@H](C)/C=C(C)/C=C/C(=O)c1c(O)c(-c2ccc(O)cc2)cn(O)c1=O
- GI50 [1]: 220 nM
- TGI [1]: 2.25 µM
- GI50 [2]: 0.292 µM
- TGI [2]: 1.11 µM
- GI50 [3]: 3200 nM
- TGI [3]: 18.8 µM
- GI50 [4]: 266 nM
- TGI [4]: 0.966 µM
- GI50 [5]: 0.314 µM
- TGI [5]: 13.1 µM
- GI50 [6]: 250 nM
- TGI [6]: 4.82 µM
- GI50 [7]: 0.575 µM
- TGI [7]: 16.3 µM
- GI50 [8]: 0.399 µM
- TGI [8]: 3.74 µM
- GI50 [9]: 0.421 µM
- TGI [9]: 11.4 µM
- GI50 [10]: 492 nM
- TGI [10]: 14.7 µM

Compound: COc1ccc(/C=C2/SC(Nc3nc(-c4nc(NC5=NC(=O)/C(=C\c6ccc(OC)cc6)S5)sc4C)c(C)s3)=NC2=O)cc1
- GI50 [1]: 1530 nM
- TGI [1]: 7.23 µM
- GI50 [2]: 1.4 µM
- TGI [2]: > 31.7 µM
- GI50 [3]: 787 nM
- TGI [3]: 9.95 µM
- GI50 [4]: 320 nM
- TGI [4]: 6.62 µM
- GI50 [5]: 1.68 µM
- TGI [5]: > 50 µM
- GI50 [6]: 140 nM
- TGI [6]: > 50 µM
- GI50 [7]: 5.81 µM
- TGI [7]: > 50 µM
- GI50 [8]: 2.14 µM
- TGI [8]: > 25.9 µM
- GI50 [9]: 5.26 µM
- TGI [9]: > 50 µM
- GI50 [10]: 485 nM
- TGI [10]: 4.92 µM

Compound: O=C1C=CC(=O)c2c(O)c3c(c(O)c21)C[C@H](O)[C@H](O)[C@@H]3O
- TGI [1]: 3.43 µM
- TGI [2]: 16.8 µM
- TGI [3]: 8.34 µM
- TGI [4]: 10.1 µM
- TGI [6]: > 100 µM
- TGI [7]: 26.9 µM
- TGI [9]: 6.92 µM
- TGI [10]: 13.2 µM

Compound: CCCCCC/C=C\CCCCCCCCCC1=C(CN2CCN(C)CC2)C(=O)C=C(OC)C1=O
- TGI [1]: 6.72 µM
- TGI [2]: 23.2 µM
- TGI [3]: 10.5 µM
- TGI [4]: 25.5 µM
- TGI [5]: 1.95 µM
- TGI [6]: 1.81 µM
- TGI [7]: 24.1 µM
- TGI [8]: 3.01 µM
- TGI [9]: 18.3 µM
- TGI [10]: 30.7 µM

Compound: COc1cccc(C2SC(N)=Nc3c2c(C)nn3C(=O)Cc2ccccc2)c1 (stereo not drawn)
- TGI [2]: > 100 µM
- TGI [3]: > 100 µM
- TGI [4]: > 100 µM
- TGI [5]: > 100 µM
- TGI [6]: > 100 µM
- TGI [7]: > 100 µM
- TGI [8]: > 100 µM
- TGI [9]: > 100 µM
- TGI [10]: > 100 µM

Compound: Oc1c(Cl)cc(Cl)c2ccc(Cn3cc(-c4ccc(C(F)(F)F)cc4)nn3)nc12
- GI50 [1]: 402 nM
- TGI [1]: 1.79 µM
- GI50 [2]: 18.9 µM
- TGI [2]: 37.3 µM
- GI50 [3]: 3000 nM
- TGI [3]: 11.1 µM
- GI50 [4]: 2610 nM
- TGI [4]: 11.9 µM
- GI50 [5]: 0.357 µM
- TGI [5]: > 100 µM
- GI50 [6]: 651 nM
- TGI [6]: > 100 µM
- GI50 [7]: 8.94 µM
- TGI [7]: 22.8 µM
- GI50 [8]: 1.42 µM
- TGI [8]: 3.79 µM
- GI50 [9]: 1.41 µM
- TGI [9]: 3.19 µM
- GI50 [10]: 16400 nM
- TGI [10]: 35.2 µM

Compound: CO[C@H]1CC(O[C@@H]2/C(C)=C/C[C@@H]3C[C@@H](C[C@]4(CC[C@H](C)[C@@H](C5CCCCC5)O4)O3)OC(=O)[C@@H]3C=C(C)/C(=N/O)[C@H]4OC/C(=C\C=C\[C@@H]2C)[C@]43O)O[C@@H](C)C1O (stereo partly drawn)
- GI50 [1]: 728 nM
- TGI [1]: 1.4 µM
- GI50 [2]: 0.793 µM
- TGI [2]: 1.51 µM
- GI50 [3]: 704 nM
- TGI [3]: 1.84 µM
- GI50 [4]: 786 nM
- TGI [4]: 1.54 µM
- GI50 [6]: 1110 nM
- TGI [6]: 2.79 µM
- GI50 [7]: 1.66 µM
- TGI [7]: 9.01 µM
- GI50 [8]: 1.12 µM
- TGI [8]: 3.13 µM
- GI50 [9]: 1.07 µM
- TGI [9]: 2.69 µM
- GI50 [10]: 887 nM
- TGI [10]: 1.73 µM

Compound: CC(C)CCCCCCCCCCCCC(=O)NCC(=O)NC1C(O)C(O)C(Nc2ncnc3nc[nH]c23)OC1C(O)CO (stereo not drawn)
- GI50 [1]: < 0.01 nM
- GI50 [3]: < 0.01 nM
- GI50 [4]: < 0.01 nM
- GI50 [5]: 0.0318 µM and 0.023 µM
- TGI [5]: 0.59 µM and 3.36 µM
- GI50 [6]: < 0.01 nM
- TGI [7]: 0.0121 µM and 0.00367 µM and 0.00683 µM
- GI50 [9]: 0.005 µM
- TGI [9]: 0.00755 µM and 0.0084 µM
- GI50 [10]: < 0.01 nM
